Laboratory results from PubChem BioAssay (NCI).
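Method: 48-hour compound exposure of cells in 96-well plates, five concentrations, linear interpolation of endpoints. Definition used: TGI = concentration required for complete inhibition of growth.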

What was measured:
Assay in all cases: NCI-60 cell line screen, 48 h
[1] = tested on: OVCAR-8 ovarian
[2] = tested on: RPMI-8226 leukemia
[3] = tested on: SF-268 CNS
[4] = tested on: HCT-116 colon
[5] = tested on: NCI-H460 lung
[6] = tested on: U251 CNS
[7] = tested on: MDA-MB-231 breast
[8] = tested on: RXF 393 renal
[9] = tested on: HOP-92 NSCLC
[10] = tested on: A549 NSCLC
[11] = tested on: IGROV1 ovarian
[12] = tested on: OVCAR-4 ovarian
[13] = tested on: HCC-2998 colon
[14] = tested on: SR leukemia
[15] = tested on: SW-620 colon
[16] = tested on: SK-OV-3 ovarian
[17] = tested on: HOP-62 NSCLC

Row | Compound | TGI [1] | TGI [2] | TGI [3] | TGI [4] | TGI [5] | TGI [6] | TGI [7] | TGI [8] | TGI [9] | TGI [10] | TGI [11] | TGI [12] | TGI [13] | TGI [14] | TGI [15] | TGI [16] | TGI [17]
1 | COc1ccc2c(O)c(S(=O)(=O)c3ccc(C)cc3)c(=O)oc2c1OC | > 100 µM | > 100 µM | > 100 µM | > 100 µM | > 100 µM | > 100 µM | > 100 µM | > 100 µM | > 100 µM | > 100 µM | > 100 µM | > 100 µM | > 100 µM | > 100 µM | > 100 µM | > 100 µM | 
2 | O=C(c1cccs1)c1nccc2c1cnc1ccccc12 | > 100 µM | > 100 µM | 98.6 µM | > 100 µM | > 100 µM | > 100 µM | > 100 µM | 21.2 µM | > 100 µM | > 100 µM |  | > 100 µM | > 100 µM | > 100 µM | > 100 µM | > 100 µM | > 100 µM
3 | Nc1ccc(-c2nc3ccc(F)cc3s2)cc1Cl | > 100 µM | > 100 µM | > 100 µM |  |  | > 100 µM | 99.5 µM | > 73.8 µM | > 100 µM | > 100 µM | > 100 µM | > 100 µM | > 100 µM | > 100 µM | > 100 µM | > 100 µM | > 100 µM
4 | CCCCCCCCC/C=C1/CC(CO)(COC(=O)CC(C(C)C)C(C)C)OC1=O (stereo not drawn) | 29.8 µM |  | 25 µM | 26.6 µM | 18.2 µM | 25.6 µM | 15.6 µM | 27.8 µM | 15.8 µM | 13.9 µM | 29.1 µM | 28.4 µM | 9.86 µM | > 54.2 µM | 19 µM | 31.5 µM | 17.4 µM
5 | CC(C)(C)C(=O)Oc1ccc(/C=C/C(=O)c2ccc(OC(=O)C(C)(C)C)cc2)cc1 | > 100 µM |  | > 100 µM | 71.4 µM | > 100 µM | > 100 µM | > 100 µM | 87.3 µM | > 100 µM | > 100 µM | > 100 µM | > 100 µM | > 100 µM | 76.4 µM | > 100 µM | > 100 µM | > 100 µM
6 | N#CC1=C(N)N(/N=C/c2ccccc2)C(c2ccccc2)C1(C#N)C#N (stereo not drawn) | 38 µM | 18.5 µM | 46 µM | 8.13 µM |  | 32.6 µM | 31.4 µM | 9.83 µM | 6.54 µM | 43.1 µM | 29.1 µM | 28.5 µM | 34.9 µM | 8.5 µM | 14.5 µM | 26.3 µM | 33.1 µM
7 | Nc1nccc(NCC2(CO)CC(OCc3ccccc3)C2)n1 (stereo not drawn) | > 100 µM | > 100 µM |  | > 100 µM | > 100 µM | > 100 µM | > 100 µM | > 100 µM | > 100 µM | > 100 µM | > 100 µM | > 100 µM | > 100 µM | > 100 µM | > 100 µM |  | > 100 µM
8 | FC(F)(F)c1ccc2c(c1)nc1n2C(c2c(Cl)cccc2Cl)SC1 (stereo not drawn) | 74.7 µM |  | 47.2 µM | 29.5 µM | 35 µM | 38.3 µM | 35.7 µM | 28.7 µM | 37 µM | 38.6 µM | 47.7 µM | 43.4 µM | 40.1 µM | > 100 µM | 71.3 µM | 85.9 µM | 31 µM
9 | COc1ccc(/C=C2/C(=O)N(C(=O)c3ccccc3O)N=C2C)cc1 | > 41.1 µM | > 100 µM | > 100 µM | > 100 µM | > 100 µM | > 100 µM | > 100 µM | 1.23 µM | > 100 µM | > 100 µM | 0.0784 µM | > 100 µM | > 100 µM | > 100 µM | > 100 µM | > 100 µM | 
10 | COc1ccc2cc(CNCCCCCCCCNCc3ccc4cc(OC)ccc4c3)ccc2c1 |  | 12.2 µM |  | > 100 µM | 33.9 µM | 6.66 µM | > 100 µM | > 100 µM | 10 µM | > 100 µM | > 100 µM | 9.55 µM | 31.8 µM | 2.76 µM | 4.38 µM |  | 10.2 µM
11 | CC1(C)CO[P@@](=S)(c2ccccn2)O[C@@H]1c1ccccc1 | > 100 µM |  | > 100 µM | > 100 µM | > 100 µM | > 100 µM | > 100 µM | > 100 µM | > 100 µM | > 100 µM | > 100 µM | > 100 µM | > 100 µM | > 100 µM | > 100 µM | > 100 µM | > 100 µM
12 | CC(=O)O[C@H]1CC[C@@]2(C)C(=CC[C@@H]3[C@@H]2CC[C@]2(C)c4c(n[nH]c4C)C[C@@H]32)C1 | 92.9 µM |  | 48.7 µM | 44.5 µM | 32.4 µM | 31.3 µM | 38.4 µM | 23.9 µM | 39.8 µM | 33.9 µM | 38.8 µM | 33.3 µM | 34.1 µM | 58.7 µM | > 100 µM | 46.1 µM | 37.8 µM
